According to patent US5872015A, “Molecular diversity screening method” (Board of Trustees of the University of Illinois, priority 1996, dated 1999):

Key:
[1] = biological target: T1, Calf intestinal adenosine deaminase (Bos taurus, UniProt P56658); assay: Selective identification of adenosine deaminase binders from a synthetic library of EHNA-type analogs (ultrafiltration, electrospray MS); assay type: binding; conditions: for detected eluting from the device in the recovery phase: scan mode, positive ion electrospray MS, ADA 7.35 μM, approximately 10 nM each analog, pH 7.4, methanol/water 90:10; for presence of ion in the recovery phase in the presence of ADA / binding to ADA in the presence of a five-fold excess of EHNA: single ion monitoring mode; for presence of ion in the recovery phase in the presence of ADA: with ADA (FIG. 11B); for binding to ADA in the presence of a five-fold excess of EHNA: with ADA and five-fold excess of authentic EHNA (FIG. 11C)
T1 sequence (P56658 1-363): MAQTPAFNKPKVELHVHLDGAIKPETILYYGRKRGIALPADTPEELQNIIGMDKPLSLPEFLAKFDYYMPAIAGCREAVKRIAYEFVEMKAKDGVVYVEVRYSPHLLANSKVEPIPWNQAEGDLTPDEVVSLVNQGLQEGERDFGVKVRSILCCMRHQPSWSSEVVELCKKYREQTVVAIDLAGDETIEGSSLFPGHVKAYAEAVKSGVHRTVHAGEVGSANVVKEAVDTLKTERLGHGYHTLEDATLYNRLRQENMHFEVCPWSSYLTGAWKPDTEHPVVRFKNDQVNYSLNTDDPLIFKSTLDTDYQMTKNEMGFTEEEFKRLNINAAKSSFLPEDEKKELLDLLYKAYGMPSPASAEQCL

[2] = test system: serum albumin; conditions: albumin-pentachlorophenol; read-out: dissociation constant; cited from earlier work
[3] = test system: bovine serum albumin; assay: Extraction of pentachlorophenol by bovine serum albumin in the molecular diversity screening device (pulsed ultrafiltration, electrospray MS); assay type: binding
Experimental: The receptor concentration is chosen to be about 100 times the smallest dissociation constant being sought. […] The binding chamber is then washed with binding buffer (i.e., 100 Mm ammonium acetate at Ph 7.4) at 100 μL/min to wash out any low molecular weight impurities. The compound, in this case pentachlorophenol (equimolar or less with respect to the serum albumin in the binding chamber) is then injected into the binding chamber, and elution of pentachlorophenol is monitored using an appropriate detector such as UV absorbance or an electrospray mass spectrometer. An example of the extraction of pentachlorophenol from a binding buffer by bovine serum albumin is shown in FIG. 7 using electrospray mass spectrometric detection.
When pentachlorophenol is injected into the binding chamber without serum albumin present, an abundant peak is detected by the mass spectrometer as pentachlorophenol flows through the device unimpeded (FIG. 7, solid curve). […] Retention of pentachlorophenol in the binding chamber corresponds to tight binding to serum albumin under the predicted concentrations.

[4] = biological target: adenosine deaminase (ADA); conditions: cited from earlier work
[5] = test system: adenosine deaminase (ADA); conditions: EHNA 2×10^-8 M continuous influx; ADA 10^-7 M; 33 mM ammonium acetate; release by 25 μL MeOH, three cases
Experimental: At about 10 min, 25 μL of MeOH is injected into the binding chamber resulting in an increase in EHNA--the first peak on the left. This signal is due to an enhanced sensitivity of the detector to EHNA in the presence of MeOH and/or due to release of non-specifically bound EHNA from the device and its parts. At about 40 min, the receptor ADA, in 33 mM ammonium acetate buffer, is introduced into the binding chamber until a receptor concentration of 10^-7 M is reached. […] At about 90 min, 25 μL of MeOH is again introduced to perturb binding and release of EHNA is observed. […] This process is repeated a third time at about 180 min. […] At about 230 min the ADA is removed from the binding chamber by opening the binding chamber wash port 9.

[6] = biological target: T1, Calf intestinal adenosine deaminase
Experimental: Calf intestinal adenosine deaminase (or another type of adenosine deaminase) is loaded into the molecular diversity screening device (equipped with a 10,000 molecular weight cutoff membrane) to a concentration of approximately 10 nM. A library of 20 adenosine analogs was prepared including the natural substrate for adenosine deaminase, adenosine (See list of compounds in Table 1).
Next, the adenosine analog library was mixed with adenosine deaminase (in a 1:1 molar ratio) in 33 mM ammonium acetate buffer at pH 7.4, and an aliquot was injected into the molecular diversity screening device to achieve a concentration of adenosine deaminase of approximately 10 nM. After flushing the binding chamber with water at 100 μL/min for 12 min, to wash out library compounds with low affinity for adenosine deaminase, methanol/water (50:50) was pumped through the chamber at 50 μL/min. The latter procedure should perturb binding of any remaining compounds bound to the adenosine deaminase and release them into the detector.

Compound | detected eluting from the device in the recovery phase [1] | presence of ion in the recovery phase in the presence of ADA [1] | binding to ADA in the presence of a five-fold excess of EHNA [1] | further results
Oc1c(Cl)c(Cl)c(Cl)c(Cl)c1Cl [pentachlorophenol] |  |  |  | Kd [2]: ~10 nM; extraction from the solution by the albumin receptor molecule ([3]; 100 mM ammonium acetate pH 7.4, unstirred 100 μL chamber, albumin approximately 1 μM): almost completely extracted; pentachlorophenol detected by the mass spectrometer after injection with albumin loaded ([3]; bovine serum albumin in chamber (FIG. 7, dashed curve)): only a trace
CCCCCCCCCCC(C(C)O)n1cnc2c(N)ncnc21 (centres unmarked) [nC10 H21] | detected | present | suppressed | 
CC(O)C(Cc1ccccc1)n1cnc2c(N)ncnc21 (centres unmarked) [benzylic] | not detected | did not appear |  | 

Continued, in another order:

detected eluting from the device in the recovery phase [1] | presence of ion in the recovery phase in the presence of ADA [1] | binding to ADA in the presence of a five-fold excess of EHNA [1] | Compound | further results
not detected | did not appear |  | CC(C)CC(C(C)O)n1cnc2c(N)ncnc21 (centres unmarked) [isobutyl] | 
detected | present | suppressed | CCCCCCCCC(C(C)O)n1cnc2c(N)ncnc21 (centres unmarked) [nC7 H15] | 
detected | present |  | CCCCCC[C@H]([C@H](C)O)n1cnc2c(N)ncnc21 (relative stereo) [EHNA, erythro-9-(2-hydroxy-3-nonyl)adenine] | Kd ([4]; read-out: dissociation constant, North, et al., 1979): 7 nM; Ki ([4]; read-out: inhibitor dissociation constant, potent inhibitor of adenosine deaminase, no source given): 2 nM; binding to and release from ADA [5]: released after being bound to the ADA; detected eluting from the binding chamber on release with methanol/water (50:50) ([6]; ADA approximately 10 nM, 33 mM ammonium acetate pH 7.4, EHNA at 20-fold lower concentration than other compounds): detected; affinity for adenosine deaminase within the library ([6]; library of 20 adenosine analogs): highest affinity
